Numbers after ± are expanded uncertainties.
Details: Liquid, Ebulliometric method (Recirculating still)

| vapor or sublimation pressure (363.25 K) [kPa] | vapor or sublimation pressure (337.85 K) [kPa] | Structure (SMILES) |
| --- | --- | --- |
| 101.32 ± 1.1 |  | COC(=O)OC [dimethyl carbonate] |
|  | 101.32 ± 1.1 | CO [methanol] |

Reference: the NIST ThermoML archive (doi:10.1021/je2005402)
